Data taken from the supplement of paper PMC10307832.

Key:
Test in all cases: relative viability (nuclei count vs DMSO), 5 days (fraction); higher = more cells survive
Silmitasertib = compound: O=C(O)c1ccc2c(c1)nc(Nc1cccc(Cl)c1)c1ccncc12 [Silmitasertib]
Method in brief: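 Hoechst staining, done together with fixation and permeabilisation, marked nuclei for 4× imaging and MetaXpress counting. This followed 5 days without medium change after lung cancer cell lines, kept overnight at 37 °C in 1536-well plates, were pinned with five library-drug doses (not always all listed) spaced by √10 on vehicle-anchored plates. Viability is the ratio of treated-well to vehicle-well nuclei, expressed as a median across plates. Plates passed only at control CV below 25% with at least one doubling.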

[1] = compound: O=C(O)c1ccc2c(c1)nc(Nc1cccc(Cl)c1)c1ccncc12 [Silmitasertib] + CS(=O)(=O)N1CCN(Cc2cc3nc(-c4cccc5[nH]ncc45)nc(N4CCOCC4)c3s2)CC1 [Pictilisib] (partner 1 µM)
Method in brief: (§1)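 Lung cancer cell lines in 1536-well plates got either a single drug or a fixed anchor-drug dose together with five library-drug doses (not always all listed) in √10 steps, by pin tool, on the day after seeding. Nuclei were counted after 5 days, and relative viability is the treated-to-vehicle ratio of nuclei counts. Values are medians of duplicate plates.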

[2] = compound: O=C(O)c1ccc2c(c1)nc(Nc1cccc(Cl)c1)c1ccncc12 [Silmitasertib] + CC1(C)CCC(c2ccc(Cl)cc2)=C(CN2CCN(c3ccc(C(=O)NS(=O)(=O)c4ccc(N[C@H](CCN5CCOCC5)CSc5ccccc5)c(S(=O)(=O)C(F)(F)F)c4)cc3)CC2)C1 [Navitoclax] (partner 0.5 µM)
Method in brief: as §1

Silmitasertib + OSI-027 = compound: O=C(O)c1ccc2c(c1)nc(Nc1cccc(Cl)c1)c1ccncc12 [Silmitasertib] + COc1cccc2cc(-c3nc([C@H]4CC[C@H](C(=O)O)CC4)n4ncnc(N)c34)[nH]c12 [OSI-027] (partner 0.5 µM)
Method in brief: as §1

[3] = compound: O=C(O)c1ccc2c(c1)nc(Nc1cccc(Cl)c1)c1ccncc12 [Silmitasertib] + Nc1ncn([C@H]2C[C@H](O)[C@@H](CO)O2)c(=O)n1 [Decitabine] (partner 2 µM)
Method in brief: as §1

Cell Line	relative viability (Silmitasertib; 0.04 µM)	relative viability (Silmitasertib; 1.265 µM)	relative viability (Silmitasertib; 4 µM)	relative viability ([1]; first compound 0.04 µM)	relative viability ([1]; first compound 1.265 µM)	relative viability ([1]; first compound 4 µM)	relative viability ([2]; first compound 0.04 µM)	relative viability ([2]; first compound 1.265 µM)	relative viability ([2]; first compound 4 µM)	relative viability (Silmitasertib + OSI-027; first compound 0.04 µM)	relative viability (Silmitasertib + OSI-027; first compound 1.265 µM)	relative viability (Silmitasertib + OSI-027; first compound 4 µM)	relative viability ([3]; first compound 0.04 µM)	relative viability ([3]; first compound 1.265 µM)	relative viability ([3]; first compound 4 µM)	relative viability (Silmitasertib; 0.4 µM)	relative viability ([1]; first compound 0.4 µM)	relative viability ([2]; first compound 0.4 µM)	relative viability (Silmitasertib + OSI-027; first compound 0.4 µM)	relative viability ([3]; first compound 0.4 µM)
NCI-H441	1	0.892	0.757	0.469	0.285	0.315	0.463	0.509	0.385	0.629	0.337	0.26	0.207	0.216	0.231	–	–	–	–	–
NCI-H460	1.03	0.959	0.799	0.424	0.314	0.3	1.26	1.3	1.04	0.822	0.64	0.672	0.551	0.478	0.363	0.951	0.412	1.2	0.688	0.511
NCI-H520	1.11	0.887	0.802	0.263	0.258	0.224	1.11	1.04	0.863	0.197	0.252	0.252	0.586	0.528	0.502	0.835	0.298	0.917	0.239	0.578
NCI-H596	0.958	0.947	0.658	0.393	0.36	0.336	1.09	0.902	0.787	0.749	0.68	0.472	0.909	1.05	0.785	0.792	0.384	0.882	0.471	1.05
NCI-H647	0.968	0.723	0.498	0.546	0.33	0.153	1.05	0.85	0.57	0.775	0.503	0.44	0.411	0.344	0.288	0.758	0.462	0.826	0.578	0.387
NCI-H727	1.18	0.833	0.894	0.608	0.381	0.32	0.425	0.365	0.275	0.701	0.48	0.488	1.09	0.544	0.691	0.619	0.392	0.343	0.426	0.844
NCI-H838	1.03	0.925	0.678	0.463	0.434	0.359	1.36	1.29	0.929	0.456	0.425	0.274	0.459	0.402	0.341	0.747	–	–	–	0.427
NCI-H1355	1.06	0.918	0.668	0.419	0.367	0.293	1.04	0.965	0.771	0.438	0.371	0.345	0.343	0.371	0.285	–	–	–	–	–
NCI-H1395	1.07	0.913	0.555	0.623	0.587	0.427	1.2	1.1	0.947	0.731	0.591	0.477	0.756	0.684	0.683	0.772	0.492	0.816	0.552	0.725
NCI-H1437	1.04	0.784	0.737	0.42	0.261	0.217	1.11	0.906	0.828	0.946	0.598	0.457	0.578	0.445	0.411	0.679	–	–	0.623	0.533
NCI-H1650	1.15	0.629	0.389	0.781	0.348	0.211	1.38	0.695	0.414	0.99	0.496	0.203	0.525	0.315	0.254	0.784	0.459	1.24	0.511	0.419
NCI-H1651	0.974	1.02	0.989	0.615	0.669	0.543	1.01	1.09	1.02	0.822	0.642	0.704	0.65	0.197	0.692	0.991	0.657	1.06	0.667	0.542
NCI-H1666	1.05	0.745	0.692	0.465	0.321	0.307	1.02	0.663	0.492	0.812	0.652	0.615	0.804	0.498	0.656	0.834	0.499	0.853	0.732	0.67
NCI-H1734	1.07	0.975	0.691	0.514	0.424	0.313	0.884	0.781	0.737	0.626	0.593	0.497	0.613	0.536	0.412	0.816	–	–	0.522	0.52
NCI-H1755	1.03	1.05	1.16	0.431	0.441	0.375	1.04	0.991	0.959	0.726	0.728	0.721	0.715	0.735	0.762	0.953	0.441	0.942	0.764	0.735
NCI-H1792	0.987	0.858	0.416	0.28	0.283	0.286	0.651	0.573	0.414	0.815	0.782	0.699	0.6	0.529	0.515	0.788	0.294	0.512	0.675	0.492

Cell Line	relative viability (Silmitasertib; 0.04 µM)	relative viability (Silmitasertib; 1.265 µM)	relative viability (Silmitasertib; 4 µM)	relative viability ([1]; first compound 0.04 µM)	relative viability ([1]; first compound 1.265 µM)	relative viability ([1]; first compound 4 µM)	relative viability ([2]; first compound 0.04 µM)	relative viability ([2]; first compound 1.265 µM)	relative viability ([2]; first compound 4 µM)	relative viability (Silmitasertib + OSI-027; first compound 0.04 µM)	relative viability (Silmitasertib + OSI-027; first compound 1.265 µM)	relative viability (Silmitasertib + OSI-027; first compound 4 µM)	relative viability ([3]; first compound 0.04 µM)	relative viability ([3]; first compound 1.265 µM)	relative viability ([3]; first compound 4 µM)	relative viability (Silmitasertib; 0.4 µM)	relative viability ([1]; first compound 0.4 µM)	relative viability ([2]; first compound 0.4 µM)	relative viability (Silmitasertib + OSI-027; first compound 0.4 µM)	relative viability ([3]; first compound 0.4 µM)
NCI-H1793	1.09	0.771	0.529	0.374	0.274	0.31	0.46	0.395	0.311	0.329	0.27	0.217	0.499	0.493	0.419	0.654	0.247	0.315	0.192	0.458
NCI-H1915	1.01	1.03	0.554	1.02	0.956	0.408	0.839	0.888	0.64	0.624	0.676	0.351	0.266	0.259	0.253	–	–	–	–	–
NCI-H1944	1.01	0.994	0.936	0.361	0.364	0.381	0.976	1.06	1.27	0.409	0.424	0.295	0.442	0.46	0.497	0.748	0.442	0.732	0.382	0.467
NCI-H1975	1.18	0.904	0.917	0.313	0.207	0.208	1.04	1.06	0.716	0.67	0.645	0.66	0.455	0.277	0.401	–	0.25	0.699	–	–
NCI-H1993	1.08	0.837	0.622	0.818	0.854	0.916	1.07	0.631	0.749	0.544	0.614	0.658	0.544	0.552	0.514	0.742	0.818	0.933	0.56	0.494
NCI-H2009	1.05	0.85	0.608	1.07	0.427	0.244	1.15	1.19	0.788	0.784	0.424	0.262	0.382	0.392	0.371	0.878	0.701	1.09	0.506	0.39
NCI-H2023	1.03	0.87	0.651	0.275	0.194	0.179	0.999	0.96	0.73	0.503	0.343	0.251	0.239	0.208	0.195	0.791	0.275	1.01	0.345	0.225
NCI-H2085	1.03	0.941	0.902	0.474	0.453	0.457	1.15	0.933	0.874	0.914	0.704	0.466	0.594	0.553	0.459	0.779	0.547	0.942	–	0.553
NCI-H2087	1.04	0.875	0.466	0.997	0.577	0.347	1.11	0.689	0.319	0.507	0.513	0.18	0.414	0.181	0.199	0.596	0.513	0.855	–	0.286
NCI-H2126	0.996	0.939	0.81	0.512	0.45	0.454	0.897	0.81	0.745	0.725	0.596	0.602	0.585	0.497	0.508	0.824	0.508	0.847	–	0.631
NCI-H2170	1.02	0.932	0.96	0.32	0.31	0.269	0.614	0.446	0.433	0.798	0.619	0.54	0.477	0.457	0.441	0.712	0.259	0.339	0.535	0.46
NCI-H2347	1.1	0.98	0.687	0.739	0.665	0.82	0.891	0.745	0.665	0.414	0.398	0.336	0.637	0.606	0.579	0.754	0.829	0.692	–	0.558
NCI-H2405	1.24	0.883	0.81	0.586	0.379	0.28	1.26	0.596	0.706	0.646	0.498	0.567	0.779	0.716	0.794	0.831	0.388	0.68	0.518	0.735
NCI-H3122	0.995	1.02	0.983	0.694	0.634	0.644	1.01	1.01	1.08	0.993	0.972	0.826	0.514	0.416	0.511	0.889	0.53	0.996	0.888	0.337
PC-3 [JPC-3]	1.04	1.1	0.953	0.837	0.586	0.708	0.746	0.773	0.775	0.841	0.777	0.573	0.968	0.836	0.723	0.812	0.672	0.688	0.573	0.846
PC-14	1.2	1.02	0.735	0.629	0.566	0.646	1.12	1.07	1.11	1.03	0.706	0.46	0.265	0.271	0.192	0.703	0.661	1.09	0.537	0.214
